Experimental data reported in ChEMBL document CHEMBL4219203, “Design, synthesis and biological evaluation of seco-A-pentacyclic triterpenoids-3,4-lactone as potent non-nucleoside HBV inhibitors” (Bioorg Med Chem Lett, 2018).
Activity calls are given as the source filed them. The rule behind the calls is not given here.

Tested on: Hepatitis B virus
Test: Antiviral activity against Hepatitis B virus infected in human HepG2.215 cells assessed as inhibition of HBsAg secretion after 3 days by ELISA
Type: functional, organism-based
Details: HepG2.2.15, 72 h

SMILES	IC50
C[C@H]1C(=O)CC[C@@H]2[C@]1(C)CC[C@H]1[C@@]2(C)CC[C@@]2(C)[C@@H]3CC(C)(C)CC[C@]3(C)CC[C@]12C [FRIEDELINE]	1210 µM
C[C@H]1[C@H](C)CC[C@]2(C(=O)O)CC[C@]3(C)C(=CC[C@@H]4[C@@]5(C)CC[C@H](O)C(C)(C)[C@@H]5CC[C@]43C)[C@H]12 [URSOLIC ACID]	1360 µM
CC1(C)CC[C@]2(C(=O)O)CC[C@]3(C)C(Br)(CC[C@@H]4[C@@]5(C)CCC(=O)C(C)(C)[C@@H]5CC[C@]43C)[C@@H]2C1 (stereo partly specified)	883 µM
CC1(C)CC[C@]2(C(=O)O)CC[C@]3(C)C(=CC[C@@H]4[C@@]5(C)CCC(=O)OC(C)(C)[C@@H]5CC[C@]43C)[C@@H]2C1	360 µM

These reach a lower IC50. Values come first.

IC50	SMILES
305 µM	CC1(C)CC[C@]2(C(=O)O)CC[C@]3(C)C(Br)(CC[C@@H]4[C@@]5(C)CCC(=O)OC(C)(C)[C@@H]5CC[C@]43C)[C@@H]2C1 (stereo partly specified)
286 µM	CC1(C)CC[C@@]23CC[C@]4(C)[C@@](OC2=O)([C@@H]3C1)[C@@H](O)C[C@@H]1[C@@]2(C)CCC(=O)OC(C)(C)[C@@H]2CC[C@]14C
259 µM	CC(C)(O)[C@@H]1CC[C@]2(C)[C@H](C(=O)C=C3[C@@H]4C[C@@](C)(C(=O)O)CC[C@]4(C)CC[C@]32C)[C@@]1(C)CCC(=O)O
171 µM	CC1(C)OC(=O)CC[C@]2(C)[C@H]3C(=O)C=C4[C@@H]5C[C@@](C)(C(=O)O)CC[C@]5(C)CC[C@@]4(C)[C@]3(C)CC[C@@H]12

Tested on: Hepatitis B virus
Test: Antiviral activity against Hepatitis B virus infected in human HepG2.215 cells assessed as inhibition of HBeAg secretion by measuring FITC-labeled monoclonal mouse HBeAg antibody non-labeled cells level at 12.5 uM after 3 days by flow cytometry (reference value: 0.5%)
Type: functional
Details: HepG2.2.15, 72 h

SMILES	inhibition at 12.5 µM
CC1(C)CC[C@]2(C(=O)O)CC[C@]3(C)C(=CC[C@@H]4[C@@]5(C)CCC(=O)OC(C)(C)[C@@H]5CC[C@]43C)[C@@H]2C1	10.6%

Tested on: Hepatitis B virus
Test: Antiviral activity against Hepatitis B virus infected in human HepG2.215 cells assessed as inhibition of HBeAg secretion by measuring FITC-labeled monoclonal mouse HBeAg antibody non-labeled cells level at 25 uM after 3 days by flow cytometry (reference value: 0.5%)
Type: functional
Details: HepG2.2.15, 72 h

SMILES	inhibition at 25 µM
CC1(C)CC[C@]2(C(=O)O)CC[C@]3(C)C(=CC[C@@H]4[C@@]5(C)CCC(=O)OC(C)(C)[C@@H]5CC[C@]43C)[C@@H]2C1	34%

Tested on: Hepatitis B virus
Test: Antiviral activity against Hepatitis B virus infected in human HepG2.215 cells assessed as inhibition of HBeAg secretion by measuring FITC-labeled monoclonal mouse HBeAg antibody non-labeled cells level at 6.25 uM after 3 days by flow cytometry (reference value: 0.5%)
Type: functional
Details: HepG2.2.15, 72 h

SMILES	inhibition at 6.25 µM
CC1(C)CC[C@]2(C(=O)O)CC[C@]3(C)C(=CC[C@@H]4[C@@]5(C)CCC(=O)OC(C)(C)[C@@H]5CC[C@]43C)[C@@H]2C1	6.2%

Tested on: not listed separately
Test: Cytotoxicity against human HepG2.215 cells assessed as reduction in cell viability after 3 days by MTT assay
Type: cell-based, HepG2 2.2.15
Details: HepG2.2.15 cells

SMILES	CC50 at 72 h
CC1(C)CC[C@]2(C(=O)O)CC[C@]3(C)C(Br)(CC[C@@H]4[C@@]5(C)CCC(=O)OC(C)(C)[C@@H]5CC[C@]43C)[C@@H]2C1 (stereo partly specified)	485 µM
CC1(C)CC[C@@]23CC[C@]4(C)[C@@](OC2=O)([C@@H]3C1)[C@@H](O)C[C@@H]1[C@@]2(C)CCC(=O)OC(C)(C)[C@@H]2CC[C@]14C	540 µM
C[C@H]1C(=O)CC[C@@H]2[C@]1(C)CC[C@H]1[C@@]2(C)CC[C@@]2(C)[C@@H]3CC(C)(C)CC[C@]3(C)CC[C@]12C [FRIEDELINE]	1790 µM
C[C@H]1[C@H](C)CC[C@]2(C(=O)O)CC[C@]3(C)C(=CC[C@@H]4[C@@]5(C)CC[C@H](O)C(C)(C)[C@@H]5CC[C@]43C)[C@H]12 [URSOLIC ACID]	1540 µM
CC(C)(O)[C@@H]1CC[C@]2(C)[C@H](C(=O)C=C3[C@@H]4C[C@@](C)(C(=O)O)CC[C@]4(C)CC[C@]32C)[C@@]1(C)CCC(=O)O	2040 µM
CC1(C)CC[C@]2(C(=O)O)CC[C@]3(C)C(Br)(CC[C@@H]4[C@@]5(C)CCC(=O)C(C)(C)[C@@H]5CC[C@]43C)[C@@H]2C1 (stereo partly specified)	100 µM
CC1(C)CC[C@]2(C(=O)O)CC[C@]3(C)C(=CC[C@@H]4[C@@]5(C)CCC(=O)OC(C)(C)[C@@H]5CC[C@]43C)[C@@H]2C1	477 µM
CC1(C)OC(=O)CC[C@]2(C)[C@H]3C(=O)C=C4[C@@H]5C[C@@](C)(C(=O)O)CC[C@]5(C)CC[C@@]4(C)[C@]3(C)CC[C@@H]12	546 µM

Tested on: not listed separately
Test: Selectivity index, ratio of CC50 for human HepG2.215 cells to IC50 for Hepatitis B virus infected in human HepG2.215 cells assessed as inhibition of HBsAg secretion
Type: toxicity, cell-based
Details: HepG2.2.15 cells (Hepatitis B virus infected), read-out: Ratio CC50/IC50

SMILES	selectivity ratio
CC1(C)CC[C@]2(C(=O)O)CC[C@]3(C)C(Br)(CC[C@@H]4[C@@]5(C)CCC(=O)OC(C)(C)[C@@H]5CC[C@]43C)[C@@H]2C1 (stereo partly specified)	1.59
CC1(C)CC[C@@]23CC[C@]4(C)[C@@](OC2=O)([C@@H]3C1)[C@@H](O)C[C@@H]1[C@@]2(C)CCC(=O)OC(C)(C)[C@@H]2CC[C@]14C	1.57
C[C@H]1C(=O)CC[C@@H]2[C@]1(C)CC[C@H]1[C@@]2(C)CC[C@@]2(C)[C@@H]3CC(C)(C)CC[C@]3(C)CC[C@]12C [FRIEDELINE]	1.48
C[C@H]1[C@H](C)CC[C@]2(C(=O)O)CC[C@]3(C)C(=CC[C@@H]4[C@@]5(C)CC[C@H](O)C(C)(C)[C@@H]5CC[C@]43C)[C@H]12 [URSOLIC ACID]	1.13
CC(C)(O)[C@@H]1CC[C@]2(C)[C@H](C(=O)C=C3[C@@H]4C[C@@](C)(C(=O)O)CC[C@]4(C)CC[C@]32C)[C@@]1(C)CCC(=O)O	7.87
CC1(C)CC[C@]2(C(=O)O)CC[C@]3(C)C(Br)(CC[C@@H]4[C@@]5(C)CCC(=O)C(C)(C)[C@@H]5CC[C@]43C)[C@@H]2C1 (stereo partly specified)	0.11
CC1(C)CC[C@]2(C(=O)O)CC[C@]3(C)C(=CC[C@@H]4[C@@]5(C)CCC(=O)OC(C)(C)[C@@H]5CC[C@]43C)[C@@H]2C1	1.32
CC1(C)OC(=O)CC[C@]2(C)[C@H]3C(=O)C=C4[C@@H]5C[C@@](C)(C(=O)O)CC[C@]5(C)CC[C@@]4(C)[C@]3(C)CC[C@@H]12	3.2

Tested on: Hepatitis B virus
Test: Antiviral activity against Hepatitis B virus infected in human HepG2.215 cells assessed as inhibition of HBeAg secretion after 3 days by ELISA
Type: functional, organism-based
Details: HepG2.2.15, 72 h

SMILES	IC50
C[C@H]1C(=O)CC[C@@H]2[C@]1(C)CC[C@H]1[C@@]2(C)CC[C@@]2(C)[C@@H]3CC(C)(C)CC[C@]3(C)CC[C@]12C [FRIEDELINE]	1250 µM
C[C@H]1[C@H](C)CC[C@]2(C(=O)O)CC[C@]3(C)C(=CC[C@@H]4[C@@]5(C)CC[C@H](O)C(C)(C)[C@@H]5CC[C@]43C)[C@H]12 [URSOLIC ACID]	897 µM
CC1(C)CC[C@]2(C(=O)O)CC[C@]3(C)C(Br)(CC[C@@H]4[C@@]5(C)CCC(=O)C(C)(C)[C@@H]5CC[C@]43C)[C@@H]2C1 (stereo partly specified)	925 µM
CC1(C)CC[C@]2(C(=O)O)CC[C@]3(C)C(=CC[C@@H]4[C@@]5(C)CCC(=O)OC(C)(C)[C@@H]5CC[C@]43C)[C@@H]2C1	0.86 µM

More lines, now with the values ahead:

IC50	SMILES
92.3 µM	CC1(C)CC[C@]2(C(=O)O)CC[C@]3(C)C(Br)(CC[C@@H]4[C@@]5(C)CCC(=O)OC(C)(C)[C@@H]5CC[C@]43C)[C@@H]2C1 (stereo partly specified)
149 µM	CC1(C)CC[C@@]23CC[C@]4(C)[C@@](OC2=O)([C@@H]3C1)[C@@H](O)C[C@@H]1[C@@]2(C)CCC(=O)OC(C)(C)[C@@H]2CC[C@]14C
257 µM	CC(C)(O)[C@@H]1CC[C@]2(C)[C@H](C(=O)C=C3[C@@H]4C[C@@](C)(C(=O)O)CC[C@]4(C)CC[C@]32C)[C@@]1(C)CCC(=O)O
81.9 µM	CC1(C)OC(=O)CC[C@]2(C)[C@H]3C(=O)C=C4[C@@H]5C[C@@](C)(C(=O)O)CC[C@]5(C)CC[C@@]4(C)[C@]3(C)CC[C@@H]12

Tested on: not listed separately
Test: Selectivity index, ratio of CC50 for human HepG2.215 cells to IC50 for Hepatitis B virus infected in human HepG2.215 cells assessed as reduction in covalently closed circular DNA level
Type: toxicity, cell-based
Details: HepG2.2.15 cells (Hepatitis B virus infected), read-out: Ratio CC50/IC50

SMILES	selectivity ratio
CC(C)(O)[C@@H]1CC[C@]2(C)[C@H](C(=O)C=C3[C@@H]4C[C@@](C)(C(=O)O)CC[C@]4(C)CC[C@]32C)[C@@]1(C)CCC(=O)O	166
CC1(C)CC[C@]2(C(=O)O)CC[C@]3(C)C(=CC[C@@H]4[C@@]5(C)CCC(=O)OC(C)(C)[C@@H]5CC[C@]43C)[C@@H]2C1	14.5

Tested on: Hepatitis B virus
Test: Antiviral activity against Hepatitis B virus infected in human HepG2.215 cells assessed as reduction in covalently closed circular DNA level after 9 days by real time QF-PCR analysis
Type: functional, organism-based
Details: HepG2.2.15, 216 h

IC50	SMILES
12.3 µM	CC(C)(O)[C@@H]1CC[C@]2(C)[C@H](C(=O)C=C3[C@@H]4C[C@@](C)(C(=O)O)CC[C@]4(C)CC[C@]32C)[C@@]1(C)CCC(=O)O
32.7 µM	CC1(C)CC[C@]2(C(=O)O)CC[C@]3(C)C(=CC[C@@H]4[C@@]5(C)CCC(=O)OC(C)(C)[C@@H]5CC[C@]43C)[C@@H]2C1

Tested on: not listed separately
Test: Selectivity index, ratio of CC50 for human HepG2.215 cells to IC50 for Hepatitis B virus infected in human HepG2.215 cells assessed as inhibition of HBeAg secretion
Type: toxicity, cell-based
Details: HepG2.2.15 cells (Hepatitis B virus infected), read-out: Ratio CC50/IC50

SMILES	selectivity ratio
CC1(C)CC[C@]2(C(=O)O)CC[C@]3(C)C(Br)(CC[C@@H]4[C@@]5(C)CCC(=O)OC(C)(C)[C@@H]5CC[C@]43C)[C@@H]2C1 (stereo partly specified)	5.21
CC1(C)CC[C@@]23CC[C@]4(C)[C@@](OC2=O)([C@@H]3C1)[C@@H](O)C[C@@H]1[C@@]2(C)CCC(=O)OC(C)(C)[C@@H]2CC[C@]14C	3.03
C[C@H]1C(=O)CC[C@@H]2[C@]1(C)CC[C@H]1[C@@]2(C)CC[C@@]2(C)[C@@H]3CC(C)(C)CC[C@]3(C)CC[C@]12C [FRIEDELINE]	1.43
C[C@H]1[C@H](C)CC[C@]2(C(=O)O)CC[C@]3(C)C(=CC[C@@H]4[C@@]5(C)CC[C@H](O)C(C)(C)[C@@H]5CC[C@]43C)[C@H]12 [URSOLIC ACID]	1.72
CC(C)(O)[C@@H]1CC[C@]2(C)[C@H](C(=O)C=C3[C@@H]4C[C@@](C)(C(=O)O)CC[C@]4(C)CC[C@]32C)[C@@]1(C)CCC(=O)O	7.95
CC1(C)CC[C@]2(C(=O)O)CC[C@]3(C)C(Br)(CC[C@@H]4[C@@]5(C)CCC(=O)C(C)(C)[C@@H]5CC[C@]43C)[C@@H]2C1 (stereo partly specified)	0.1
CC1(C)CC[C@]2(C(=O)O)CC[C@]3(C)C(=CC[C@@H]4[C@@]5(C)CCC(=O)OC(C)(C)[C@@H]5CC[C@]43C)[C@@H]2C1	> 200
CC1(C)OC(=O)CC[C@]2(C)[C@H]3C(=O)C=C4[C@@H]5C[C@@](C)(C(=O)O)CC[C@]5(C)CC[C@@]4(C)[C@]3(C)CC[C@@H]12	6.67

Tested on: Hepatitis B virus
Test: Antiviral activity against Hepatitis B virus infected in human HepG2.215 cells assessed as reduction in cellular viral DNA level at 25 uM after 9 days by real time QF-PCR analysis relative to control
Type: functional
Details: not given

SMILES	inhibition
CC1(C)CC[C@@]23CC[C@]4(C)[C@@](OC2=O)([C@@H]3C1)[C@@H](O)C[C@@H]1[C@@]2(C)CCC(=O)OC(C)(C)[C@@H]2CC[C@]14C	Active
CC1(C)OC(=O)CC[C@]2(C)[C@H]3C(=O)C=C4[C@@H]5C[C@@](C)(C(=O)O)CC[C@]5(C)CC[C@@]4(C)[C@]3(C)CC[C@@H]12	Active

Same assay, conditions: HepG2.2.15, 216 h

SMILES	inhibition at 25 µM
CC(C)(O)[C@@H]1CC[C@]2(C)[C@H](C(=O)C=C3[C@@H]4C[C@@](C)(C(=O)O)CC[C@]4(C)CC[C@]32C)[C@@]1(C)CCC(=O)O	91.4%
CC1(C)CC[C@]2(C(=O)O)CC[C@]3(C)C(=CC[C@@H]4[C@@]5(C)CCC(=O)OC(C)(C)[C@@H]5CC[C@]43C)[C@@H]2C1	81.6%
